Data as given in patent US20240307430A1, “PHARMACEUTICAL COMPOSITION CONTAINING NICOTINAMIDE ADENINE DINUCLEOTIDE (NAD) AND CD38 INHIBITOR AND APPLICATION THEREOF” (HEFEI KNATURE BIO-PHARM CO., LTD., priority 2021, published 2024).

Assays:
[1] = test system: Doxorubicin-induced cardiotoxicity (DIC) model; assay: NAD+ content of cardiac tissues in the doxorubicin-induced cardiotoxicity (DIC) model; format: in vivo, C57BL/6 male mice; conditions: FIG. 2
Protocol: Circulation. 2016; 133:1668-1687”. 8-week-old C57BL/6 male mice were injected with 5 mg/kg of doxorubicin (DOX) or normal saline via the tail vein, and the administration was performed once a week for four consecutive weeks. Four weeks after the last administration, the mice were subjected to echocardiography to detect the cardiac function, and myocardial tissues of the mice were taken to detect the NAD^+ content. Mice were intraperitoneally injected with the same volume of saline as that of the experimental group once a day, and the duration cycle was the same as that of the DIC model. After administration, mice were subjected to echocardiography to detect the cardiac function, and myocardial tissues were taken from mice to detect NAD^+ content. CD38 inhibitor 78c was dissolved with DMSO. Mice were injected intraperitoneally with 10 mg/kg CD38 inhibitor 78c at 3 hours before doxorubicin injection in the DIC model. 78c was administered once a day until the endpoint of the DIC model. At the end of the model, echocardiography was performed on the mice to detect the cardiac function of the mice, and myocardial tissues were taken from the mice to detect NAD^+ content. NAD was dissolved in saline. Mice were injected intraperitoneally with 50 mg/kg NAD at 3 hours before doxorubicin injection in the DIC model. NAD was administered once a day, which lasted until the endpoint of the DIC model. […]

[2] = molecular target: T1, CD38 (Homo sapiens, UniProt P28907); conditions: from the literature, Cell Metabolism 2018; cited from earlier work
T1 sequence (P28907 1-300): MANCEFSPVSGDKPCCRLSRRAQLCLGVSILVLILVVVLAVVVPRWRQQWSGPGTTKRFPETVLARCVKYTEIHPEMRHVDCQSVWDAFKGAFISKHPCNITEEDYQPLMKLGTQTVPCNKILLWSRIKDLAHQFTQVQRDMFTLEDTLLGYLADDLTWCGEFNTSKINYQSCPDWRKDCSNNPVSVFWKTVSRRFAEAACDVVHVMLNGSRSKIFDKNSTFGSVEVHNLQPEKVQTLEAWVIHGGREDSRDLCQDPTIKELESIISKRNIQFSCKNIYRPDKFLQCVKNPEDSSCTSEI

[3] = test system: Doxorubicin-induced cardiotoxicity (DIC) model; assay: Echocardiography of cardiac function (EF, FS) in the DIC model; format: in vivo, C57BL/6 male mice
Protocol: Circulation. 2016; 133:1668-1687”. 8-week-old C57BL/6 male mice were injected with 5 mg/kg of doxorubicin (DOX) or normal saline via the tail vein, and the administration was performed once a week for four consecutive weeks. Four weeks after the last administration, the mice were subjected to echocardiography to detect the cardiac function, and myocardial tissues of the mice were taken to detect the NAD^+ content. Mice were intraperitoneally injected with the same volume of saline as that of the experimental group once a day, and the duration cycle was the same as that of the DIC model. After administration, mice were subjected to echocardiography to detect the cardiac function, and myocardial tissues were taken from mice to detect NAD^+ content. CD38 inhibitor 78c was dissolved with DMSO. Mice were injected intraperitoneally with 10 mg/kg CD38 inhibitor 78c at 3 hours before doxorubicin injection in the DIC model. 78c was administered once a day until the endpoint of the DIC model. At the end of the model, echocardiography was performed on the mice to detect the cardiac function of the mice, and myocardial tissues were taken from the mice to detect NAD^+ content. NAD was dissolved in saline. Mice were injected intraperitoneally with 50 mg/kg NAD at 3 hours before doxorubicin injection in the DIC model. NAD was administered once a day, which lasted until the endpoint of the DIC model. At the end of the model, mice were subjected to echocardiography to detect cardiac function, and myocardial tissues were taken from mice to detect NAD^+ content. CD38 inhibitor 78c was dissolved in DMSO. Mice were injected intraperitoneally with 50 mg/kg NAD and 10 mg/kg CD38 inhibitor 78c at 3 hours before doxorubicin injection in the DIC model. The CD38 inhibitor 78c was administered once a day, which lasted until the endpoint of the DIC model. At the end of the model, mice were subjected to echocardiography to detect cardiac function, and myocardial tissues were taken from mice to detect NAD^+ content.

[4] = test system: CD38; assay: CD38 expression in mouse heart tissues after doxorubicin treatment; format: in vivo, mice; conditions: after doxorubicin treatment (5 mg/kg via tail vein, once a week for four weeks); mainly in CD31-positive endothelial cell region; FIG. 1
Protocol: 8-week-old C57BL/6 male mice were injected with 5 mg/kg of doxorubicin (DOX) or normal saline via the tail vein, and the administration was performed once a week for four consecutive weeks. Four weeks after the last administration, the mice were subjected to echocardiography to detect the cardiac function, and myocardial tissues of the mice were taken to detect the NAD^+ content.

| SMILES | cardiac NAD+ content ([1]; DOX-treated mice, i.p. once a day from 3 hours before doxorubicin, NAD 50 mg/kg, 78c 10 mg/kg) | inhibitory activity against CD38 [2] | cardiac function (EF, FS) ([3]; DOX-treated mice, i.p. once a day from 3 hours before doxorubicin, NAD 50 mg/kg, 78c 10 mg/kg, FIGS. 3a and 3b) | CD38 expression in mouse heart tissues [4] | NAD+ content of the cardiac tissues ([1]; doxorubicin 5 mg/kg via tail vein once a week for four weeks, compared with the control group) | ejection fraction (EF) of the mouse heart ([3]; doxorubicin 5 mg/kg via tail vein once a week for four weeks, echocardiography, FIG. 3a) | fractional shortening (FS) of the mouse heart ([3]; doxorubicin 5 mg/kg via tail vein once a week for four weeks, echocardiography, FIG. 3b) |
| --- | --- | --- | --- | --- | --- | --- | --- |
| COCCOC1CCC(Nc2cc(=O)n(C)c3ccc(-c4cncs4)cc23)CC1 (stereo not shown) [compound 78c] | modestly increased | has been demonstrated | improved cardiac function | – | – | – | – |
| COc1cccc2c1C(=O)c1c(O)c3c(c(O)c1C2=O)C[C@@](O)(C(=O)CO)C[C@@H]3O[C@H]1C[C@H](N)[C@H](O)[C@H](C)O1 [doxorubicin] | – | – | – | significantly increased | significant decrease | significantly reduced | significantly reduced |
